Paper PMC11434749, “In Vitro Interaction of Binuclear Copper Complexes with Liver Drug-Metabolizing Cytochromes P450” (Pharmaceuticals, 2024)

Experiment: Stability on recrystallization from water and methanol
Type: physicochemical
Conditions: recrystallized from water and from methanol, crystals of the same composition
Protocol: [Cu2(μ-fu)(pmdien)2(H2O)2](ClO4)2 (complex No. 5) and [Cu2(μ-dtdp)(pmdien)2(H2O)2](ClO4)2 (complex No. 6) were prepared according to a published procedure. […] The structure of complex No. 6 was presented by us in [20]. The structure of complex No. 5 was measured again (the structure was previously solved with worse parameters by Mautner), and our new single crystal data were deposited under CCDC 2378750. Tables with crystal data, structure refinement, and selected bond lengths and angles are presented in ESI (Tables S1–S3). The molecular structures are depicted in Figure 1. It can be seen that the binuclear copper complexes differ in the dicarboxylato bridge. The coordination number on copper is five. All the copper centers are coordinated by three nitrogen atoms of tridentate chelating ligand pmdien and two oxygen atoms. One oxygen is from a water molecule, and the second one is from a monodentately bonding carboxylato group. The fumarato bridge contains a double bond, whereas the dithiodipropionato bridge is longer, with two sulfur atoms. Neither the double bond nor the sulfur atoms are involved in coordination with central atoms. Two perchlorate anions in each molecule are not involved in coordination. There are only hydrogen bonds among the oxygen atoms of the perchlorate group and hydrogens of the coordination cation.

Structure (SMILES): CN(C)CCN(C)CCN(C)C.CN(C)CCN(C)CCN(C)C.O.O.O=C([O-])/C=C/C(=O)[O-].[Cu+2].[Cu+2].[O-][Cl+3]([O-])([O-])[O-].[O-][Cl+3]([O-])([O-])[O-] [Complex No. 5, [Cu2(μ-fu)(pmdien)2(H2O)2](ClO4)2]
- stability of the complex in solvents: very good stability
